As a reminder, the IC50 is the point on the concentration scale where inhibition reaches its midpoint.

Bounds are passed on as bounds.

The target of experiment [1] is DYRK2 (Homo sapiens (Human), UniProt Q92630). The following applies: literature value; cited from earlier work.
The test system of experiment [2] is MOG35-55-induced chronic progressive Experimental Autoimmune Encephalomyelitis (EAE). The experiment can be described thus: MOG35-55-induced murine model of chronic progressive EAE. In kind it is in vivo, mice. The following applies: for activity in the EAE model (reference compounds): reference compound. From the text: Compound 40 of Table 1 was examined for application in neurodegenerative disorders using a MOG35-55-induced murine model of chronic progressive Experimental Autoimmune Encephalomyelitis (EAE), an inflammation model predictive for multiple sclerosis (MS).
Without being bound by theory, the present inventors note that compound 40 could have a peripheral immunomodulation effect and an overall neuroprotective effect, which could have advantageous implications for the treatment of neurodegenerative disorders like Alzheimer's disease and Multiple Sclerosis.

For experiment [3], the target named is DYRK1B (GST tagged full length human DYRK1B isoform p65) (Homo sapiens (Human), UniProt Q9Y463). Kind of experiment: DYRK1B ELISA assay. In kind it is biochemical. To be noted: 70 ng GST-DYRK1B, kinase reaction time 60 min. The procedure: (§1) DYRK1A assay. […] After blocking, wells were washed extensively with dilution buffer before subjecting to phosphorylation. […] At the end point, wells were washed with ˜350 μl dilution buffer three times to terminate the reaction. […] Each point was run in quadruplicate with DMSO present in all assays at 0.2% final concentration. […] HT-PRD phosphorylation was subsequently determined by the sandwich antibody staining protocol, first with 100 μl mouse mAb 3D3 specific for detecting DYRK1A-phosphorylated PRD (60 min at room temperature) then with 100 μl alkaline phosphatase (AP)-linked anti-mouse secondary antibody (60 min at room temperature), followed by colorimetric reaction with 100 μl PNPP solution (PNPP substrate tablet, Thermo Fisher). […] The readings were then recorded for subsequent IC50 calculation. The DYRK1A assay protocol can also support DYRK1B and DYRK2 phosphorylation reactions in the enzyme concentration-dependent manner; therefore, the method was adapted for measuring the activity of candidate compounds against DYRK1B and DYRK2. For DYRK2, the reactions were performed as described above with 6 ng HT-DYRK2 (6×His tagged full-length human DYRK2 isoform 1). For DYRK1B, the assays were also similarly conducted but with 70 ng GST-DYRK1B (glutathione S-transferase tagged full length human DYRK1B isoform p65) and an extended kinase reaction time of 60 min.
Sequence of DYRK1B (GST tagged full length human DYRK1B isoform p65) (Q9Y463 other isoform, or with tags, fused parts or gaps): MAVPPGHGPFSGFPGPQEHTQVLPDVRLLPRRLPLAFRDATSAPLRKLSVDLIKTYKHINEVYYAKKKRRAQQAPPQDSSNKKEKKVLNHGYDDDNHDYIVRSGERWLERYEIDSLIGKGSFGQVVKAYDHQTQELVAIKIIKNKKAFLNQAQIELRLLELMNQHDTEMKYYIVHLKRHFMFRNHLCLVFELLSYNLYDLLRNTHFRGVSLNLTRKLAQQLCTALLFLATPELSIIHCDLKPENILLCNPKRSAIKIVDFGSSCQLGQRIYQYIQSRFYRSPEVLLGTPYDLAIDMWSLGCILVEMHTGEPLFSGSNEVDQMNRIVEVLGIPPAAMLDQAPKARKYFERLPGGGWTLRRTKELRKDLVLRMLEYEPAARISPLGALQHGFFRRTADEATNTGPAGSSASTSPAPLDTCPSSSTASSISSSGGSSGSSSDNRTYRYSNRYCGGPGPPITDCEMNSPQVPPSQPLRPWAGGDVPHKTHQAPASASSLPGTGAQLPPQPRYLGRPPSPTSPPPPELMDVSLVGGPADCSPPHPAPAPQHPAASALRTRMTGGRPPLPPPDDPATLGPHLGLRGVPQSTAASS
(§2) Data transformation, calculation, plotting, curve fitting, and IC 50 calculation were performed in KaleidaGraph (http://www.synergy.com/wordpress_650164087; Mac version 4.1). Data was corrected for background (readings from wells with only PNPP) before subsequent manipulations. […] The resulting residual activity was then plotted against its corresponding inhibitor concentrations in semi-log graph and the plot was fit to the sigmoidal equation, y=a+(b−a)/(1+(x/c)^d), for IC50 calculation.
Compounds of Table 1, above, were examined in vitro for activity against DYRK1B, via an ELISA assay.
Background: ELISA stands for enzyme-linked immunosorbent assay.

The target in experiment [4] is DYRK1A (HT-497, 6×His tagged rat truncated DYRK1A isoform X1 residues 1-497) (Rattus norvegicus (Rat), UniProt Q63470). The experiment can be described thus: DYRK1A ELISA assay (HT-PRD phosphorylation). In kind it is biochemical. To be noted: 100 µM ATP, 5 ng HT-497, 30 min at 30° C. The procedure: Compounds of Table 1, above, were examined in vitro for activity against DYRK1A, DYRK1B, DYRK2 via an ELISA assay.
as §1
Dilution factors for both mAb 3D3 and secondary antibody were pre-determined for each batch of antibody to ensure that neither antibody was limiting in the assay.
as §2

Setting [5] is: twice daily intranasal administration, 15 mg/kg.

Sequence of DYRK2 (Q92630 whole entry, species assumed): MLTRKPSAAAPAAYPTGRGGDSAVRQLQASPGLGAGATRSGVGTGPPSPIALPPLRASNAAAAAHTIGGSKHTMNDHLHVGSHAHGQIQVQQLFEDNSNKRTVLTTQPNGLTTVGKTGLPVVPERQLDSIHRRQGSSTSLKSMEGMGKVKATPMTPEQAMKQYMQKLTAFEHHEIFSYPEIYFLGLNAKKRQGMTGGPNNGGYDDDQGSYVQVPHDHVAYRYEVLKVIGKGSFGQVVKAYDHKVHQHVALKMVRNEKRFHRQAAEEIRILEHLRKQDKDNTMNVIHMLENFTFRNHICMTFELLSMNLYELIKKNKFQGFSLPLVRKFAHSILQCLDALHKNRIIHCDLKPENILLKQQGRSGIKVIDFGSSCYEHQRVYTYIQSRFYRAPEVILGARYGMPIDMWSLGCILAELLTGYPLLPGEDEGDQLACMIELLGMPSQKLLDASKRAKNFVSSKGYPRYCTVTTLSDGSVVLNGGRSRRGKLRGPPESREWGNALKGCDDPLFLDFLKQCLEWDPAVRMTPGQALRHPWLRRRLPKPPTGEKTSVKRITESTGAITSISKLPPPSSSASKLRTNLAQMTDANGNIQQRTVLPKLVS

Consider `COc1cc(N2CCN(C)CC2)ccc1Nc1nccc(-c2cn(C)c3cnccc23)n1` [AZ-191], for which, in experiment [1], the IC50 is 1.89 µM.
Turning to `O=C(O[C@@H]1Cc2c(O)cc(O)cc2O[C@@H]1c1cc(O)c(O)c(O)c1)c1cc(O)c(O)c(O)c1` [Compound 3, (2R,3R)-5,7-dihydroxy-2-(3,4,5-trihydroxyphenyl)chroman-3-yl 3,4,5-trihydroxybenzoate, reference compound], in experiment [2] (FIG. 1), the “activity in the EAE model (reference compounds)” value is recorded as “no significant activity”.
In the case of `O=C(O[C@@H]1Cc2c(O)cc(O)cc2O[C@H]1c1cc(O)c(O)c(O)c1)c1cc(O)c(O)c(O)c1F` [Compound 40, (2S,3R)-5,7-dihydroxy-2-(3,4,5-trihydroxyphenyl)chroman-3-yl 2-fluoro-3,4,5-trihydroxybenzoate], in experiment [3], the half-inhibitory concentration (IC50) is less than 0.1 µM. The IC50 in experiment [4] is less than 0.1 µM. The “axons and myelin during chronic EAE” value in experiment [2] (Bielschowsky silver staining (neurofilaments), LFB staining (myelin)) was “preserved axons and myelin”. In experiment [2] (compared to the vehicle control group), the “spinal cord inflammation, hematoxylin and eosin staining” value is on record as “significant spinal cord inflammation reductions”. The “lesion severity scores, histopathology of spinal cord section” value in experiment [2] (treated intranasally, compared to the other treatment groups, FIG. 2) is “significant (p<0.001) reductions in lesion severity scores”. Moreover, in experiment [2] (setting [5]), the “reduction of brain IFNγ” value turned out to be 90% and the “reduction of brain IL-17” value was found to be 79%. The “effect on disease course (EAE)” value in experiment [2] (twice daily intranasal administration, 15 mg/kg, FIG. 1) was “reversal of the disease”.
For `COc1c(O)c(O)cc(C(=O)O[C@@H]2Cc3c(O)cc(O)cc3O[C@H]2c2cc(O)c(O)c(O)c2)c1F` [Compound 50, (2S,3R)-5,7-dihydroxy-2-(3,4,5-trihydroxyphenyl)chroman-3-yl 2-fluoro-4,5-dihydroxy-3-methoxybenzoate], in experiment [4], the IC50 was greater than 0.1 µM.
As to `O=C(O[C@@H]1Cc2c(O)cc(O)cc2O[C@H]1c1cc(O)c(O)c(O)c1)c1c(F)c(O)c(O)c(O)c1F` [Compound 51, (2S,3R)-5,7-dihydroxy-2-(3,4,5-trihydroxyphenyl)chroman-3-yl 2,6-difluoro-3,4,5-trihydroxybenzoate], the IC50 in experiment [3] and in experiment [4] was less than 0.1 µM throughout.
Take `Cc1cc(O)c(O)cc1[C@@H]1Oc2cc(O)cc(O)c2C[C@H]1OC(=O)c1cc(O)c(O)c(O)c1F` [Compound 52, (2S,3R)-2-(4,5-dihydroxy-2-methylphenyl)-5,7-dihydroxychroman-3-yl 2-fluoro-3,4,5-trihydroxybenzoate]: in experiment [4], the half-inhibitory concentration (IC50) was greater than 0.1 µM.
Consider `O=C(O[C@@H]1Cc2ccccc2C[C@H]1c1cc(O)c(O)c(O)c1)c1cc(O)c(O)c(O)c1` [Compound 53, (2R,3S)-3-(3,4,5-trihydroxyphenyl)-1,2,3,4-tetrahydronaphthalen-2-yl 3,4,5-trihydroxybenzoate], for which the half-inhibitory concentration (IC50) in experiment [4] was greater than 1 µM.
On to `O=C(O[C@@H]1Cc2c(O)cc(O)cc2O[C@H]1c1ccc(O)c(O)c1)c1cc(O)c(O)c(O)c1F` [Compound 55, (2S,3R)-2-(3,4-dihydroxyphenyl)-5,7-dihydroxychroman-3-yl 2-fluoro-3,4,5-trihydroxybenzoate], for which the concentration for half-maximal inhibition (IC50) in experiment [3] was greater than 0.1 µM; in experiment [4], less than 0.1 µM.
Turning to `COc1c(O)c(O)c(F)c(C(=O)O[C@@H]2Cc3c(O)cc(O)cc3O[C@H]2c2cc(O)c(O)c(O)c2)c1F` [Compound 59, (2S,3R)-5,7-dihydroxy-2-(3,4,5-trihydroxyphenyl)chroman-3-yl 2,6-difluoro-3,4-dihydroxy-5-methoxybenzoate], in experiment [4], the IC50 was greater than 0.1 µM.
As to `O=C(O[C@@H]1Cc2c(O)cc(O)cc2O[C@H]1c1cc(O)c(O)c(O)c1)c1cc(O)c(O)c(OC(F)F)c1` [Compound 60, (2S,3R)-5,7-dihydroxy-2-(3,4,5-trihydroxyphenyl)chroman-3-yl 3-(difluoromethoxy)-4,5-dihydroxybenzoate], the IC50 in experiment [4] was greater than 0.1 µM.
As for `CC(C)Oc1c(O)c(O)c(F)c(C(=O)O[C@@H]2Cc3c(O)cc(O)cc3O[C@H]2c2cc(O)c(O)c(O)c2)c1F` [Compound 61, (2S,3R)-5,7-dihydroxy-2-(3,4,5-trihydroxyphenyl)chroman-3-yl 2,6-difluoro-3,4-dihydroxy-5-isopropoxybenzoate], the 50% inhibitory concentration (IC50) in experiment [4] was greater than 0.1 µM.
Take `O=C(O[C@@H]1Cc2c(O)cc(O)cc2O[C@H]1c1cc(O)c(O)c(O)c1)c1cc(O)c(O)cc1C(F)(F)F` [Compound 62, (2S,3R)-5,7-dihydroxy-2-(3,4,5-trihydroxyphenyl)chroman-3-yl 4,5-dihydroxy-2-(trifluoromethyl)benzoate]: in experiment [4], the IC50 is greater than 0.1 µM.
On to `Cc1c(C(=O)O[C@@H]2Cc3c(O)cc(O)cc3O[C@H]2c2cc(O)c(O)c(O)c2)ccc(O)c1O` [Compound 63, (2S,3R)-5,7-dihydroxy-2-(3,4,5-trihydroxyphenyl)chroman-3-yl 3,4-dihydroxy-2-methylbenzoate], for which the IC50 in experiment [4] was greater than 0.1 µM.
Turning to `COc1c(O)c(O)c(F)c(C(=O)O[C@@H]2Cc3c(O)cc(O)cc3O[C@H]2c2ccc(O)c(O)c2)c1F` [Compound 64, (2S,3R)-2-(3,4-dihydroxyphenyl)-5,7-dihydroxychroman-3-yl 2,6-difluoro-3,4-dihydroxy-5-methoxybenzoate], in experiment [4], the IC50 was greater than 0.1 µM.
For `O=C(O[C@@H]1Cc2c(O)cc(O)cc2O[C@H]1c1cc(O)c(O)c(O)c1)c1cc(OC(F)F)c(O)c(O)c1F` [Compound 65, (2S,3R)-5,7-dihydroxy-2-(3,4,5-trihydroxyphenyl)chroman-3-yl 5-(difluoromethoxy)-2-fluoro-3,4-dihydroxybenzoate], the IC50 in experiment [4] is greater than 0.1 µM.
Still for that read-out and setting: as for `O=C(O[C@@H]1Cc2c(O)cc(O)cc2O[C@H]1c1cc(O)c(O)c(O)c1)c1cc(O)c(O)c(F)c1` [Compound 66, (2S,3R)-5,7-dihydroxy-2-(3,4,5-trihydroxyphenyl)chroman-3-yl 3-fluoro-4,5-dihydroxybenzoate], the figure is greater than 0.1 µM; as for `CCC(=O)Oc1cc(O)c2c(c1)O[C@H](c1cc(O)c(O)c(O)c1)[C@H](OC(=O)c1cc(O)c(O)c(O)c1)C2` [Compound 69, (2R,3R)-5-hydroxy-7-(propionyloxy)-2-(3,4,5-trihydroxyphenyl)chroman-3-yl 3,4,5-trihydroxybenzoate], greater than 0.1 µM.
With `CCNC(=O)Oc1cc(O)c2c(c1)O[C@H](c1cc(O)c(O)c(O)c1)[C@H](OC(=O)c1cc(O)c(O)c(O)c1)C2` [Compound 70, (2R,3R)-7-((ethylcarbamoyl)oxy)-5-hydroxy-2-(3,4,5-trihydroxyphenyl)chroman-3-yl 3,4,5-trihydroxybenzoate], the IC50 in experiment [4] was greater than 0.1 µM.
Take `CCCCCC(=O)Oc1cc(O)c2c(c1)O[C@H](c1cc(O)c(O)c(O)c1)[C@H](OC(=O)c1cc(O)c(O)c(O)c1)C2` [Compound 71, (2R,3R)-7-(hexanoyloxy)-5-hydroxy-2-(3,4,5-trihydroxyphenyl)chroman-3-yl 3,4,5-trihydroxybenzoate]: in experiment [4], the IC50 was greater than 0.1 µM.
With `CCNC(=O)Oc1c(O)cc([C@H]2Oc3cc(O)cc(O)c3C[C@H]2OC(=O)c2cc(O)c(O)c(O)c2)cc1O` [Compound 72, (2R,3R)-2-(4-((ethylcarbamoyl)oxy)-3,5-dihydroxyphenyl)-5,7-dihydroxychroman-3-yl 3,4,5-trihydroxybenzoate], the IC50 in experiment [4] is greater than 0.1 µM.
As for `CCCCCCCCc1ccc(CCC(N)(CO)CO)cc1` [FTY720, Fingolimod, reference compound], in experiment [2] (FIG. 1), the “activity in the EAE model (reference compounds)” value is listed as “reversal of the disease”.

Values taken from patent US20240336588A1, “COMPOSITIONS AND METHODS FOR ANTIOXIDANT AND ANTI-INFLAMMATORY THERAPEUTICS” (AVANTI BIOSCIENCES INC., priority 2021, published 2024).
